Results published in patent publication US20140005163A1 (NOVARTIS AG, priority 2010, published 2014).
≈ marks a conversion by molar mass, not a printed value. Read-outs that look alike come from different tables or passages of the source.

What was measured:
[1] = molecular target: T1, PI3K alpha (Homo sapiens, UniProt P42336); experiment: PI3K alpha kinase assay (Kinase-Glo luminescence); type: biochemical
T1 construct: p85(iSH2) fusion partner (see partner chain) (N); His tag (C); made in house; host or cells: baculovirus; Tn5 (Trichoplusia ni) or TiniPro insect cells
T1 sequence (P42336 with tags, fused parts or gaps limits assumed): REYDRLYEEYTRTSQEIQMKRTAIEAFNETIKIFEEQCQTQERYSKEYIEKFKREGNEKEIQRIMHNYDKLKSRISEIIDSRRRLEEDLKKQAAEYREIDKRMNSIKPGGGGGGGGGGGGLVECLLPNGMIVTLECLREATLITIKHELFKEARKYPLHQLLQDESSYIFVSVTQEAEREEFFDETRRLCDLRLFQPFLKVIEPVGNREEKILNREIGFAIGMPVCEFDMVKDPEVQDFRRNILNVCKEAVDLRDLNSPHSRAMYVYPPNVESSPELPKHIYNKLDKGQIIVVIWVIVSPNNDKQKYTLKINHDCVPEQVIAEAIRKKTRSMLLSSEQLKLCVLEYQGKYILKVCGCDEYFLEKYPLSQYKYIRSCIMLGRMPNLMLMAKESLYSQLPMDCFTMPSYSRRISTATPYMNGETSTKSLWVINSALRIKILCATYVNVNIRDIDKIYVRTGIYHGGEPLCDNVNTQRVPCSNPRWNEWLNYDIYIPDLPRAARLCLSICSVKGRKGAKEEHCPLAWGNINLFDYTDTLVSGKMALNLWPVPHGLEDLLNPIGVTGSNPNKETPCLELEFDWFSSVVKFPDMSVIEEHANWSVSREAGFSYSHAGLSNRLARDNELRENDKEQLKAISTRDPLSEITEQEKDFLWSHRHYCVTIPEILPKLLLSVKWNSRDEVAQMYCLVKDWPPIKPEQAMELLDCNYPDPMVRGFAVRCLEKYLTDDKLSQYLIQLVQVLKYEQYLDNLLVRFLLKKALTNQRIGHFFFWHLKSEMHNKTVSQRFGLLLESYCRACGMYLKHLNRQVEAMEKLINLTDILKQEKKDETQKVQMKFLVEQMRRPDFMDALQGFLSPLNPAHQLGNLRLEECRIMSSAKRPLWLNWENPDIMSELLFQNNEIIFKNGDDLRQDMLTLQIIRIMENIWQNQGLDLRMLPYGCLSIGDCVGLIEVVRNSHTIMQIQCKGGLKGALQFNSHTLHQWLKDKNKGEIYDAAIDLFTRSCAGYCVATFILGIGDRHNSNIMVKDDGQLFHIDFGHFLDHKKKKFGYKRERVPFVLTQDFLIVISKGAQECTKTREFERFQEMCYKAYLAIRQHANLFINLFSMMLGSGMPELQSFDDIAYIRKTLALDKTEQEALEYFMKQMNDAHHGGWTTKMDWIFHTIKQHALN
How it was run: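 PI3Kα construct EMV B1075 (10 nM final) was preincubated with 10 μg/mL phosphatidylinositol in 10 mM Tris-HCl pH 7.5, 3 mM MgCl2, 50 mM NaCl, 0.05% CHAPS, 1 mM DTT. Reaction started with 1 μM ATP, 60 min at room temperature; remaining ATP measured by Kinase-Glo luminescence. IC50 from 4-parameter logistic fit of 8-point titrations.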

[2] = system: PKB Ser473 phosphorylation in Rat1-myr-HA-p110 beta cells; experiment: Reverse protein array assay, PKB Ser473 phosphorylation in Rat1-myr-p110 beta cells; type: cell-based; details: 0.5 h, pAkt Ser473, 30 minutes incubation, read-out: p-PKB IC50
How it was run: (§1)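 Measured: PKB Ser473 phosphorylation by reverse protein array in Rat1 cells expressing myr-HA-p110 alpha, beta or delta, after 30 min compound treatment at 37 °C with 0.2% DMSO vehicle.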

[3] = Solubility at pH 6.8; type: physicochemical
How it was run: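 Solubility was measured at pH 6.8 following the cited Zhou et al. (2007) procedure.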

[4] = system: PKB Ser473 phosphorylation in Rat1-myr-HA-p110 alpha cells; experiment: Reverse protein array assay, PKB Ser473 phosphorylation in Rat1-myr-p110 alpha cells; type: cell-based; details: 0.5 h, pAkt Ser473, 30 minutes compound incubation, read-out: p-PKB IC50
How it was run: as §1

[5] = system: PKB Ser473 phosphorylation in Rat1-myr-HA-p110 delta cells; experiment: Reverse protein array assay, PKB Ser473 phosphorylation in Rat1-myr-p110 delta cells; type: cell-based; details: read-out: p-PKB IC50
How it was run: as §1

[6] = pH 6.8, aqueous buffer, thermodynamic from solid, read-out: solubility

Compound	IC50 [1] [nM]	IC50 [2] [nM]	solubility [3, 6] [µg/mL]	IC50 [4] [nM]	IC50 [5] [nM]	solubility ([3]; pH 6.8) [µg/mL]
CCn1cc(-n2c(=O)n(C)c3cnc4ccc(-c5cnc(N)c(COC)c5)cc4c32)c(C)n1 [Example 168.2, 8-(6-Amino-5-methoxymethyl-pyridin-3-yl)-1-(1-ethyl-3-methyl-1H-pyrazol-4-yl)-3-methyl-1,3-dihydro-imidazo[4,5-c]quinolin-2-one]	23	18	24 (≈ 54.1 µM)	12	19	–
CCOc1cc(-c2ccc3ncc4c(c3c2)n(-c2cn(C)nc2C)c(=O)n4C)ccc1OC [Example 28.3, 1-(1,3-Dimethyl-1H-pyrazo1-4-yl)-8-(3-ethoxy-4-methoxy-phenyl)-3-methyl-1,3-dihydro-imidazo[4,5-c]quinolin-2-one]	13	15	–	9	24	2 (≈ 4.51 µM)
Cc1nn(C)cc1-n1c(=O)n(C)c2cnc3ccc(-c4cncc(N(C)S(C)(=O)=O)c4)cc3c21 [Example 121, N-{5-[1-(1,3-Dimethyl-1H-pyrazol-4-yl)-3-methyl-2-oxo-2,3-dihydro-1H-imidazo[4,5-c]quinolin-8-yl]-pyridin-3-yl}-N-methyl-methanesulfonamide]	19	444	47 (≈ 98.4 µM)	254	341	–
Cc1nn(C)cc1-n1c(=O)n(C)c2cnc3ccc(-c4cccc(S(C)(=O)=O)c4)cc3c21 [Example 40, 1-(1,3-Dimethyl-1H-pyrazol-4-yl)-8-(3-methanesulfonyl-phenyl)-3-methyl-1,3-dihydro-imidazo[4,5-c]quinolin-2-one]	20	65	–	77	138	2 (≈ 4.47 µM)
COc1ccc(-c2ccc3ncc4c(c3c2)n(-c2cc(C)nn2C)c(=O)n4C)cn1 [Example 2.3, 1-(2,5-Dimethyl-2H-pyrazol-3-yl)-8-(6-methoxy-pyridin-3-yl)-3-methyl-1,3-dihydro-imidazo[4,5-c]quinolin-2-one]	30	116	7 (≈ 17.5 µM)	12	240	–
CCNc1cc(-c2ccc3ncc4c(c3c2)n(-c2c(C)nn(C)c2C)c(=O)n4C)cnc1F [Example 154.1, 8-(5-Ethylamino-6-fluoro-pyridin-3-yl)-3-methyl-1-(1,3,5-trimethyl-1H-pyrazol-4-yl)-1,3-dihydro-imidazo[4,5-c]quinolin-2-one]	157	104	–	102	141	2 (≈ 4.49 µM)
CCOc1cc(-c2ccc3ncc4c(c3c2)n(-c2c(C)nn(C)c2C)c(=O)n4C)ccc1OC [Example 28.2, 8-(3-Ethoxy-4-methoxy-phenyl)-3-methyl-1-(1,3,5-trimethyl-1H-pyrazol-4-yl)-1,3-dihydro-imidazo[4,5-c]quinolin-2-one]	62	125	3 (≈ 6.56 µM)	76	212	–
COc1ccc(-c2ccc3ncc4c(c3c2)n(-c2ccnn2C)c(=O)n4C)cc1OC [Example 1.3, 8-(3,4-Dimethoxy-phenyl)-3-methyl-1-(2-methyl-2H-pyrazol-3-yl)-1,3-dihydro-imidazo[4,5-c]quinolin-2-one]	14	96	–	46	140	2 (≈ 4.81 µM)
Cc1nn(CC(=O)N(C)C)cc1-n1c(=O)n(C)c2cnc3ccc(-c4ccccc4)cc3c21 [Example 37.3, N,N-Dimethyl-2-[3-methyl-4-(3-methyl-2-oxo-8-phenyl-2,3-dihydro-imidazo[4,5-c]quinolin-1-yl)-pyrazol-1-yl]-acetamide]	71	235	41 (≈ 93.1 µM)	40	362	–

More lines, in order of falling IC50 [1], values ahead:

IC50 [1] [nM]	IC50 [2] [nM]	solubility [3, 6] [µg/mL]	IC50 [4] [nM]	IC50 [5] [nM]	solubility ([3]; pH 6.8) [µg/mL]	Compound
817	162	> 431	150	403	–	CNc1ncc(-c2ccc3ncc4c(c3c2)n(-c2c(C)nn(C)c2C)c(=O)n4C)cc1F [Example 141.1, 8-(5-Fluoro-6-methylamino-pyridin-3-yl)-3-methyl-1-(1,3,5-trimethyl-1H-pyrazol-4-yl)-1,3-dihydro-imidazo[4,5-c]quinolin-2-one]
168	100	36 (≈ 68.5 µM)	84	307	–	CCN(C)C(=O)Cn1cc(-n2c(=O)n(C)c3cnc4ccc(-c5cnc(N6CCCC6)nc5)cc4c32)c(C)n1 [Example 140.1, N-Ethyl-N-methyl-2-{3-methyl-4-[3-methyl-2-oxo-8-(2-pyrrolidin-1-yl-pyrimidin-5-yl)-2,3-dihydro-imidazo[4,5-c]quinolin-1-yl]-pyrazol-1-yl}-acetamide]
93	130	16 (≈ 34 µM)	104	132	–	CNC(=O)c1cc(-c2ccc3ncc4c(c3c2)n(-c2cn(C(C)C)nc2C)c(=O)n4C)cnc1N [Example 224.2, 2-Amino-5-[1-(1-isopropyl-3-methyl-1H-pyrazol-4-yl)-3-methyl-2-oxo-2,3-dihydro-1H-imidazo[4,5-c]quinolin-8-yl]-N-methyl-nicotinamide]
60	52	36 (≈ 84 µM)	42	62	–	CCn1cc(-n2c(=O)n(C)c3cnc4ccc(-c5cnc(N(C)C)nc5)cc4c32)c(C)n1 [Example 6.4, 8-(2-Dimethylamino-pyrimidin-5-yl)-1-(1-ethyl-3-methyl-1H-pyrazol-4-yl)-3-methyl-1,3-dihydro-imidazo[4,5-c]quinolin-2-one]
50	187	–	82	61	2 (≈ 4.51 µM)	COc1ncc(-c2ccc3ncc4c(c3c2)n(-c2cn(C)nc2C)c(=O)n4C)cc1C(N)=O [Example 125.2, 5-[1-(1,3-Dimethyl-1H-pyrazol-4-yl)-3-methyl-2-oxo-2,3-dihydro-1H-imidazo[4,5-c]quinolin-8-yl]-2-methoxy-nicotinamide]
20	< 5	70 (≈ 169 µM)	< 5	21	–	CCn1cc(-n2c(=O)n(C)c3cnc4ccc(-c5ccc(NC)nc5)cc4c32)c(C)n1 [Example 118.4, 1-(1-Ethyl-3-methyl-1H-pyrazol-4-yl)-3-methyl-8-(6-methylamino-pyridin-3-yl)-1,3-dihydro-imidazo[4,5-c]quinolin-2-one]
17	92	164 (≈ 396 µM)	95	112	–	COCc1cncc(-c2ccc3ncc4c(c3c2)n(-c2cn(C)nc2C)c(=O)n4C)c1 [Example 54.1, 1-(1,3-Dimethyl-1H-pyrazol-4-yl)-8-(5-methoxymethyl-pyridin-3-yl)-3-methyl-1,3-dihydro-imidazo[4,5-c]quinolin-2-one]
7	110	–	85	193	2 (≈ 5.19 µM)	Cc1nn(C)cc1-n1c(=O)n(C)c2cnc3ccc(-c4cccc(O)c4)cc3c21 [Example 32.1, 1-(1,3-Dimethyl-1H-pyrazol-4-yl)-8-(3-hydroxy-phenyl)-3-methyl-1,3-dihydro-imidazo[4,5-c]quinolin-2-one]
6	22	–	18	66	2 (≈ 4.53 µM)	Cc1nn(C)cc1-n1c(=O)n(C)c2cnc3ccc(-c4cnc5c(c4)OCCN5C)cc3c21 [Example 209, 1-(1,3-Dimethyl-1H-pyrazol-4-yl)-3-methyl-8-(4-methyl-3,4-dihydro-2H-pyrido[3,2-b][1,4]oxazin-7-yl)-1,3-dihydro-imidazo[4,5-c]quinolin-2-one]
5	11	14 (≈ 32.2 µM)	9	11	–	CCOc1cncc(-c2ccc3ncc4c(c3c2)n(-c2cn(C)nc2Cl)c(=O)n4C)c1 [Example 56.4, 1-(3-Chloro-1-methyl-1H-pyrazol-4-yl)-8-(5-ethoxy-pyridin-3-yl)-3-methyl-1,3-dihydro-imidazo[4,5-c]quinolin-2-one]
5	10	3 (≈ 6.68 µM)	8	22	–	Cc1nn(C)cc1-n1c(=O)n(C)c2cnc3ccc(-c4cccc5c4OC(F)(F)O5)cc3c21 [Example 35, 8-(2,2-Difluoro-benzo[1,3]dioxol-4-yl)-1-(1,3-dimethyl-1H-pyrazol-4-yl)-3-methyl-1,3-dihydro-imidazo[4,5-c]quinolin-2-one]
4	< 5	15 (≈ 31.3 µM)	< 5	5	–	Cc1ncc(-c2ccc3ncc4c(c3c2)n(-c2cn(C)nc2C)c(=O)n4C)cc1OC(CF)CF [Example 189, 1-(1,3-Dimethyl-1H-pyrazol-4-yl)-8-[5-(2-fluoro-1-fluoromethyl-ethoxy)-6-methyl-pyridin-3-yl]-3-methyl-1,3-dihydro-imidazo[4,5-c]quinolin-2-one]
